According to ChEMBL document CHEMBL1764992, “RNA-binding and viral reverse transcriptase inhibitory activity of a novel cationic diamino acid-based peptide” (J Med Chem, 2011):
Activity calls are given as the source filed them. No cut-off for these calls is given here.

How the values were obtained:
[1] = test system: Moloney murine leukemia virus; assay: Inhibition of Moloney murine leukemia virus reverse transcriptase at 0.5 ug after 1 hr by RT-PCR analysis relative to control
[2] = test system: Nucleic Acid; assay: Binding affinity to dT12 DNA by circular dichroism spectra analysis; assay type: nucleic-acid assay
[3] = test system: Moloney murine leukemia virus; assay: Inhibition of Moloney murine leukemia virus reverse transcriptase at 1 ug after 1 hr by RT-PCR analysis relative to control
[4] = test system: Nucleic Acid; assay: Binding affinity to poly(U) RNA by circular dichroism spectra analysis; assay type: nucleic-acid assay
[5] = target: Human immunodeficiency virus type 1 reverse transcriptase (Human immunodeficiency virus 1) (UniProt Q72547); assay: Inhibition of HIV1 reverse transcriptase at 0.5 to 1 ug after 1 hr by RT-PCR analysis relative to control
[6] = test system: Nucleic Acid; assay: Binding affinity to poly(U) RNA by ultraviolet spectra analysis; assay type: nucleic-acid assay
[7] = test system: Nucleic Acid; assay: Binding affinity to dT12 DNA by ultraviolet spectra analysis; assay type: nucleic-acid assay

inhibition [1]: 30%
Activity [2]: inactive
inhibition [3]: 18%
Activity [4]: Active
inhibition [5]: 60%
Activity [6]: Active
Activity [7]: inactive
Compound: Cc1cn(CC(=O)NCCCC[C@H](N)C(=O)NCC[C@H](N)C(=O)NCCCC[C@H](N)C(=O)NCC[C@H](N)C(=O)NCCCC[C@H](N)C(=O)NCC[C@H](N)C(=O)NCCCC[C@H](N)C(=O)NCC[C@H](N)C(=O)NCCCC[C@H](N)C(=O)NCC[C@H](N)C(=O)NCCCC[C@H](N)C(=O)NCC[C@H](N)C(=O)NCCCC[C@H](N)C(=O)NCC[C@H](N)C(=O)NCCCC[C@H](N)C(=O)NCC[C@H](N)C(=O)NCCCC[C@H](N)C(N)=O)c(=O)[nH]c1=O
